Where a name gives a salt, the structure may show the parent alone.

In this assay the target is T1, human GluN1/GluN2B NMDA receptors (Homo sapiens, UniProt Q13224).
T1 construct: expressed in transfected cells
Briefly: Calcium flux (FLIPR) assay on cloned human NR1/GluN2B ion channels expressed in mammalian cells (standard and HTS variants). The format is cell-based. Particulars: cells expressing human GluN1/GluN2B, glutamate and glycine co-agonists. A digest of the protocol:
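Calcium influx read by FLIPR after co-agonist addition (glycine 10 μM, glutamate near EC40) following 5 min compound preincubation, with signal normalized to control wells.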

T1 sequence (Q13224 27-1484, other chains not shown): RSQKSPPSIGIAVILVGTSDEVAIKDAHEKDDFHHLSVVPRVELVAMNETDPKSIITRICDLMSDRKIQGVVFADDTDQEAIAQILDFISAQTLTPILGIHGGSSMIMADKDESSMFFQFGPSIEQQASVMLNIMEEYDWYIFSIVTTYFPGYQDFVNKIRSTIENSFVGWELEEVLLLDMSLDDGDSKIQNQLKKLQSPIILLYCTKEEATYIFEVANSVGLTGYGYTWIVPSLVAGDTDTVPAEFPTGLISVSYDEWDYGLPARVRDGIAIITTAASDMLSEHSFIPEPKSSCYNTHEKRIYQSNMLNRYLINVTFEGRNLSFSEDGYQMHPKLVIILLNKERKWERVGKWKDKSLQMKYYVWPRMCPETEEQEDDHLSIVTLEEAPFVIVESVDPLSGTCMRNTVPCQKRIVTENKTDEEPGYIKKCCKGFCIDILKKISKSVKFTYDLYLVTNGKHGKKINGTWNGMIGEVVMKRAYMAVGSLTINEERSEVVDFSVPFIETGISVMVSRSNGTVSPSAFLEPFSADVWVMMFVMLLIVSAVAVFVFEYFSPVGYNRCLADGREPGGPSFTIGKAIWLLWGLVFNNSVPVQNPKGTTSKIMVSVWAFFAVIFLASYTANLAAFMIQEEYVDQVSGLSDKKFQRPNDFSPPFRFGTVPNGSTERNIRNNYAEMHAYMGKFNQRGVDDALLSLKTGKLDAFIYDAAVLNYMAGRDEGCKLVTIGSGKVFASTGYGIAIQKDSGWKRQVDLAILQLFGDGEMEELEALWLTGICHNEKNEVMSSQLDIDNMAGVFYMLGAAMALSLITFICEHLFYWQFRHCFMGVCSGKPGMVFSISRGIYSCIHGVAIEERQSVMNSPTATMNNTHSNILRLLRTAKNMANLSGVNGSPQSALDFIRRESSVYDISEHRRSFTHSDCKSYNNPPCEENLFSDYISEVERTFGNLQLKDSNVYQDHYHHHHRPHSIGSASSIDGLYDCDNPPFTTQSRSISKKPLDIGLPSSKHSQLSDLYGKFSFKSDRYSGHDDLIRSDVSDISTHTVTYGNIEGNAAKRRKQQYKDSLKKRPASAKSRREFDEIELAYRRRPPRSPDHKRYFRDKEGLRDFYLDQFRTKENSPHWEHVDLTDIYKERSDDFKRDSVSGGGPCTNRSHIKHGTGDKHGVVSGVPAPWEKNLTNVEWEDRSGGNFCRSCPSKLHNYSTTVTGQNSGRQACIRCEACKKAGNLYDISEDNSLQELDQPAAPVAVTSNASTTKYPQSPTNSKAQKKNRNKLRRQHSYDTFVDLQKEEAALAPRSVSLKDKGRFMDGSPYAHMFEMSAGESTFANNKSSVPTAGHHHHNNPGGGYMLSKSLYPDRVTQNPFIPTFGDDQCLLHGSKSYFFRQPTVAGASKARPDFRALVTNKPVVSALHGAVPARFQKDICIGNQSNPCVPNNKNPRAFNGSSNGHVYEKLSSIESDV

On to `CC(F)(F)c1cccc(-c2cnc3cnn(Cc4cccnn4)c3c2)c1` [Example 257, 6-[3-(1,1-Difluoroethyl)phenyl]-1-(pyridazin-3-ylmethyl)pyrazolo[4,3-b]pyridine], for which the IC50 was determined as 110 nM.
With `CC(F)(F)c1cc(-c2cnc3cnn(Cc4cccnn4)c3c2)ccc1F` [Example 260, 6-[3-(1,1-Difluoroethyl)-4-fluoro-phenyl]-1-(pyridazin-3-ylmethyl)pyrazolo[4,3-b]pyridine] the figure was 162 nM; with `Cc1nnc(Cn2nc(F)c3ncc(-c4ccc(F)c(Cl)c4)cc32)o1` [Example 93, 2-[[6-(3-Chloro-4-fluoro-phenyl)-3-fluoro-pyrazolo[4,3-b]pyridin-1-yl]methyl]-5-methyl-1,3,4-oxadiazole], 87 nM; with `COc1nnc(Cn2ncc3ncc(-c4ccc(F)c(C(F)F)c4)cc32)s1` [Example 127, 2-[[6-[3-(difluoromethyl)-4-fluoro-phenyl]pyrazolo[4,3-b]pyridin-1-yl]methyl]-5-methoxy-1,3,4-thiadiazole], 850 nM.
For `Cc1cc(-c2cnc3cnn(Cc4cccnc4C)c3c2)ccc1F` [Example 179, 6-(4-Fluoro-3-methyl-phenyl)-1-[(2-methyl-3-pyridyl)methyl]pyrazolo[4,3-b]pyridine], the IC50 worked out at 507 nM.
For `COc1cncc(Cn2ncc3ncc(-c4ccc(F)c(C(F)(F)F)c4)cc32)c1` [Example 234, 6-[4-Fluoro-3-(trifluoromethyl)phenyl]-1-[(5-methoxy-3-pyridyl)methyl]pyrazolo[4,3-b]pyridine], the IC50 was found to be 92 nM.
`COc1cccc(-c2cnc3cnn(Cc4nc(C)no4)c3c2)c1` [Example 81, 5-[[6-(3-Methoxyphenyl)pyrazolo[4,3-b]pyridin-1-yl]methyl]-3-methyl-1,2,4-oxadiazole]: the IC50 worked out at 2310 nM.
To `Cc1nonc1Cn1ncc2ncc(-c3ccc(F)c(C(F)F)c3)cc21` [Example 98, 3-[[6-[3-(Difluoromethyl)-4-fluoro-phenyl]pyrazolo[4,3-b]pyridin-1-yl]methyl]-4-methyl-1,2,5-oxadiazole] belongs 34 nM; to `Cc1noc(Cn2ncc3ncc(-c4ccc(F)cc4)cc32)n1` [Example 80, 5-[[6-(4-Fluorophenyl)pyrazolo[4,3-b]pyridin-1-yl]methyl]-3-methyl-1,2,4-oxadiazole], 957 nM; to `Cc1csc(Cn2ncc3ncc(-c4ccc(F)c(C(F)F)c4)cc32)n1` [Example 66, 2-[[6-[3-(Difluoromethyl)-4-fluoro-phenyl]pyrazolo[4,3-b]pyridin-1-yl]methyl]-4-methyl-thiazole], 410 nM.
To `FC(F)Oc1cc(-c2cnc3cnn(Cc4cncc(Cl)c4)c3c2)ccc1Cl` [Example 243, 6-[4-Chloro-3-(difluoromethoxy)phenyl]-1-[(5-chloro-3-pyridyl)methyl]pyrazolo[4,3-b]pyridine] belongs 146 nM; to `COc1cncc(Cn2ncc3ncc(-c4ccc(F)c(C(C)(F)F)c4)cc32)c1` [Example 220, 6-[3-(1,1-Difluoroethyl)-4-fluoro-phenyl]-1-[(5-methoxy-3-pyridyl)methyl]pyrazolo[4,3-b]pyridine], 89 nM.
With `Fc1ccc(-c2cnc3cnn(Cc4ccccn4)c3c2)cc1OC(F)F` [Example 222, 6-[3-(Difluoromethoxy)-4-fluoro-phenyl]-1-(2-pyridylmethyl)pyrazolo[4,3-b]pyridine] the figure was 502 nM; with `Cc1nnc(Cn2ncc3ncc(-c4cccc(C(C)(F)F)c4)cc32)o1` [Example 82, 2-[[6-[3-(1,1-Difluoroethyl)phenyl]pyrazolo[4,3-b]pyridin-1-yl]methyl]-5-methyl-1,3,4-oxadiazole], 160 nM; with `CC(F)(F)c1cccc(-c2cnc3cnn(Cc4cn[nH]c4)c3c2)c1` [Example 35, 6-[3-(1,1-Difluoroethyl)phenyl]-1-(1H-pyrazol-4-ylmethyl)pyrazolo[4,3-b]pyridine], 648 nM.
As to `Cc1cc(Cn2ncc3ncc(-c4ccc(F)c(OC(F)F)c4)cc32)ncn1` [Example 281, 6-[3-(Difluoromethoxy)-4-fluoro-phenyl]-1-[(6-methylpyrimidin-4-yl)methyl]pyrazolo[4,3-b]pyridine], the IC50 amounted to 984 nM.
Regarding `Fc1cc(-c2cnc3cnn(Cc4ccccn4)c3c2)cc(F)c1F` [Example 250, 1-(2-Pyridylmethyl)-6-(3,4,5-trifluorophenyl)pyrazolo[4,3-b]pyridine], the IC50 worked out at 2630 nM.
To `COc1nccc(Cn2ncc3ncc(-c4ccc(F)c(OC(F)F)c4)cc32)n1` [Example 291, 6-[3-(Difluoromethoxy)-4-fluoro-phenyl]-1-[(2-methoxypyrimidin-4-yl)methyl]pyrazolo[4,3-b]pyridine] belongs 938 nM; to `CN(C)c1nnc(Cn2ncc3ncc(-c4ccc(F)c(C(F)F)c4)cc32)o1` [Example 101, 5-[[6-[3-(Difluoromethyl)-4-fluoro-phenyl]pyrazolo[4,3-b]pyridin-1-yl]methyl]-N,N-dimethyl-1,3,4-oxadiazol-2-amine], over 2990 nM.
On to `Cc1cc(Cn2ncc3ncc(-c4ccc(F)c(C(F)F)c4)cc32)ncn1` [Example 280, 6-[3-(Difluoromethyl)-4-fluoro-phenyl]-1-[(6-methylpyrimidin-4-yl)methyl]pyrazolo[4,3-b]pyridine], for which the IC50 was 226 nM.
With `COc1cccc(-c2cnc3cnn(Cc4ccccn4)c3c2)c1` [Example 154, 6-(3-Methoxyphenyl)-1-(2-pyridylmethyl)pyrazolo[4,3-b]pyridine], the IC50 was determined as 7370 nM.
To `Cc1cc(-c2cnc3cnn(Cc4cnccc4C)c3c2)ccc1F` [Example 181, 6-(4-Fluoro-3-methyl-phenyl)-1-[(4-methyl-3-pyridyl)methyl]pyrazolo[4,3-b]pyridine trifluoroacetate salt] belongs 113 nM; to `Fc1ccc(-c2cnc3cnn(Cc4ccno4)c3c2)cc1C(F)F` [Example 50, 5-[[6-[3-(Difluoromethyl)-4-fluoro-phenyl]pyrazolo[4,3-b]pyridin-1-yl]methyl]isoxazole], 31 nM; to `Cc1c(F)ccc(-c2cnc3cnn(Cc4nnc(C(F)(F)F)o4)c3c2)c1F` [Example 119, 2-[[6-(2,4-Difluoro-3-methyl-phenyl)pyrazolo[4,3-b]pyridin-1-yl]methyl]-5-(trifluoromethyl)-1,3,4-oxadiazole], 245 nM.
To `Cc1ncc(Cn2ncc3ncc(-c4ccc(F)c(C)c4F)cc32)o1` [Example 63, 5-[[6-(2,4-Difluoro-3-methyl-phenyl)pyrazolo[4,3-b]pyridin-1-yl]methyl]-2-methyl-oxazole] belongs 268 nM; to `Fc1cc(-c2cnc3cnn(Cc4cccnn4)c3c2)cc(F)c1F` [Example 268, 1-(Pyridazin-3-ylmethyl)-6-(3,4,5-trifluorophenyl)pyrazolo[4,3-b]pyridine], 673 nM.
On to `Fc1ccc(-c2cnc3cnn(Cc4nnc(C(F)F)s4)c3c2)cc1C(F)F` [Example 129, 2-(Difluoromethyl)-5-[[6-[3-(difluoromethyl)-4-fluoro-phenyl]pyrazolo[4,3-b]pyridin-1-yl]methyl]-1,3,4-thiadiazole], for which the IC50 is 17 nM.
To `COc1cccc(-c2cnc3cnn(Cc4ccc(F)nc4)c3c2)c1` [Example 155, 1-[(6-Fluoro-3-pyridyl)methyl]-6-(3-methoxyphenyl)pyrazolo[4,3-b]pyridine] belongs 1650 nM; to `FC(F)(F)c1cccc(-c2cnc3cnn(Cc4ccncn4)c3c2)c1` [Example 6, 1-(Pyrimidin-4-ylmethyl)-6-[3-(trifluoromethyl)phenyl]pyrazolo[4,3-b]pyridine hydrochloride salt], 819 nM.
For `Cc1nnc(Cn2ncc3ncc(-c4ccc(Cl)c(C(F)F)c4)cc32)o1` [Example 106, 2-[[6-[4-Chloro-3-(difluoromethyl)phenyl]pyrazolo[4,3-b]pyridin-1-yl]methyl]-5-methyl-1,3,4-oxadiazole], the IC50 turned out to be 115 nM.
As to `COc1cncc(Cn2ncc3ncc(-c4ccc(F)c(C(F)F)c4)cc32)c1` [Example 207, 6-[3-(Difluoromethyl)-4-fluoro-phenyl]-1-[(5-methoxy-3-pyridyl)methyl]pyrazolo[4,3-b]pyridine], the IC50 was found to be 28 nM.
With `Cc1cc(-c2cnc3cnn(Cc4cccnn4)c3c2)ccc1F` [Example 259, 6-(4-Fluoro-3-methyl-phenyl)-1-(pyridazin-3-ylmethyl)pyrazolo[4,3-b]pyridine trifluoroacetate salt], the IC50 was found to be 30 nM.
As for `Cc1cccc(-c2cnc3c(F)nn(Cc4cncc(F)c4)c3c2)c1` [Example 147, 3-Fluoro-1-[(5-fluoro-3-pyridyl)methyl]-6-(m-tolyl)pyrazolo[4,3-b]pyridine], the IC50 came to 48 nM.
As for `Cc1cc(Cn2ncc3ncc(-c4ccc(Cl)c(OC(F)F)c4)cc32)no1` [Example 62, 3-[[6-[4-Chloro-3-(difluoromethoxy)phenyl]pyrazolo[4,3-b]pyridin-1-yl]methyl]-5-methyl-isoxazole], the IC50 came to 159 nM.
With `FC(F)(F)c1cccc(-c2cnc3cnn(Cc4ccccc4)c3c2)c1` [Example 21, 1-Benzyl-6-[3-(trifluoromethyl)phenyl]pyrazolo[4,3-b]pyridine hydrochloride salt], the IC50 was determined as 3280 nM.
For the compound `Fc1ccc(-c2cnc3cnn(Cc4nnco4)c3c2)cc1C(F)F` [Example 94, 2-[[6-[3-(Difluoromethyl)-4-fluoro-phenyl]pyrazolo[4,3-b]pyridin-1-yl]methyl]-1,3,4-oxadiazole], the IC50 is 58 nM.
With `Cc1nnc(Cn2ncc3ncc(-c4ccc(Cl)c(OC(F)F)c4)cc32)s1` [Example 135, 2-[[6-[4-Chloro-3-(difluoromethoxy)phenyl]pyrazolo[4,3-b]pyridin-1-yl]methyl]-5-methyl-1,3,4-thiadiazole] the figure was 133 nM.

These data come from patent US11530210B2, “Substituted heteroaromatic pyrazolo-pyridines and their use as GLUN2B receptor modulators” (JANSSEN PHARMACEUTICA NV, priority 2019, dated 2022).
